Measurements published in patent US7122519B2, “Didemnin analogs and fragments and methods of making and using them” (priority 2000, dated 2006).

Assays:
[1] = tested on: protein biosynthesis; experiment: inhibition of protein biosynthesis; format: biochemical; conditions: concentration of compound; read-out: Protein Synthesis (inhibition of protein biosynthesis)
Excerpt: (§1) Initial results are shown in Table 2 for inhibition of protein biosynthesis (column 1), cytotoxicity (column 2), and anti-tumor activity (column 3) of tamandarin A, as compared to the related anti-tumor compound didemnin B. The results in Table 2 are given in units of concentration of the selected compound.

[2] = tested on: tumor; experiment: anti-tumor activity (Assay Mean); format: cell-based
Excerpt: as §1

[3] = tested on: NCI-60 60 tumor cell line panel; experiment: cytotoxicity, NCI-60 tumor cell line panel mean; format: cell-based
Experimental: as §1
As used herein, “GI50” refers to the dose of a compound which is capable of producing 50% inhibition of cell growth. GI50 is assessed by comparing growth of cells to which a compound has been administered with growth of the same cells to which the compound has not been administered.
As used herein, “LC50” refers to the dose of a compound which is capable of producing 50% lethality in cells. LC50 is assessed by comparing death of cells in a population of cells to which a compound has been administered with the death of cells in a population of the same cells to which the compound has not been administered.
“NCI-60” refers to a 60 tumor cell line panel which from the National Cancer Institute (NCI, Frederick, MD). “NCI-60 Mean” is the average GI50 or LC50 for the panel treated with the selected compound.

[4] = tested on: pancreatic carcinoma; conditions: cited from earlier work

Compound | IC50 [1] [µM] | Anti-tumor activity (Assay Mean) [2] [nM] | cytotoxicity compared with didemnin B ([3]; in vitro, assays of Table 2) | LC50 ([3]; mean over 60 tumor cell line panel, 50% lethality in cells) [µM] | in vitro activity against pancreatic carcinoma compared with didemnin B [4]
CC[C@H](C)[C@H]1NC(=O)[C@@H](NC(=O)[C@@H](CC(C)C)N(C)C(=O)[C@@H]2CCCN2C(=O)C(C)O)[C@@H](C)OC(=O)[C@H](Cc2ccc(OC)cc2)N(C)C(=O)[C@@H]2CCCN2C(=O)[C@H](CC(C)C)NC(=O)[C@@H](C)C(=O)[C@H](C(C)C)OC(=O)C[C@@H]1O (stereo partly shown) [Didemnin B, reference compound] | 4 | 1.58 |  |  | 
tamandarin A | 1.3 | 1.31 | significantly less cytotoxic | 4.8 | greater in vitro activity
